The target in series [1] is T1, Histone-lysine N-methyltransferase EZH2 (Homo sapiens, UniProt Q15910). In words: Inhibition of wild type EZH2 (unknown origin).
Target sequence in this assay (Q15910 whole entry): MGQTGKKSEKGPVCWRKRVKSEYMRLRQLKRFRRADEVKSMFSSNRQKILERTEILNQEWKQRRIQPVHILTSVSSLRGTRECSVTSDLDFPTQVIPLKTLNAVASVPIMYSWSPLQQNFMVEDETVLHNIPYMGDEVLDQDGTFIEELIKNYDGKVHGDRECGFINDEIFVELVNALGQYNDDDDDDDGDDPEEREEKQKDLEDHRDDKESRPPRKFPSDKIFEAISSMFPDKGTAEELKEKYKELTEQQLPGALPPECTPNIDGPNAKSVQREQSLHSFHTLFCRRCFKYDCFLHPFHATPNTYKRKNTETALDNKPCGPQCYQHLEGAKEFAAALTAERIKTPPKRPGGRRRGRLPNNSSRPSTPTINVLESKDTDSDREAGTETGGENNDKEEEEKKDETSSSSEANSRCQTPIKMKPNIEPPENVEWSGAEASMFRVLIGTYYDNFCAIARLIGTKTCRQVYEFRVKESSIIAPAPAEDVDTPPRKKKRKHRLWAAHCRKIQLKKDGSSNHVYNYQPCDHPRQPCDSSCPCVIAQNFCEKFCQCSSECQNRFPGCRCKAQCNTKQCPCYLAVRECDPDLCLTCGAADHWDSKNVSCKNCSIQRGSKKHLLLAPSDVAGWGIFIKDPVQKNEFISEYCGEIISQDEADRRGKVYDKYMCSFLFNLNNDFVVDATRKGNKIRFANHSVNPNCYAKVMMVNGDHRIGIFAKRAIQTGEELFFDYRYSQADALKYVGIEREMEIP
Series [2] has as its target Histone-lysine N-methyltransferase EZH2 (Homo sapiens, UniProt Q15910, Y641N). In words: Inhibition of EZH2 Y641N mutant (unknown origin).
A short description of series [3]: Passive permeability from basolateral to apical side in human Caco2 cells. Type of series: ADME, cell-based. Particulars: Caco-2, read-out: permeability.
Series [4] can be described thus: Passive permeability from apical to basolateral side in human Caco2 cells. It is filed as ADME, cell-based. Particulars: Caco-2, read-out: permeability. (Caco-2 monolayers are a common model of the intestinal barrier.)
Series [5] concerns the target T1, Histone-lysine N-methyltransferase EZH2. In words: Inhibition of EZH2 in human HeLa cells assessed as reduction in H3K27me3 level. It is filed as cell-based.
Target sequence in this assay (Q15910 whole entry, looked up): as the sequence (Q15910 whole entry) above
Series [6] is described as follows: Efflux ratio of passive permeability in human Caco2 cells. It is filed as ADME, cell-based. The following applies: Caco-2.
Series [7] is described as follows: Growth inhibition of human KARPAS422 cells after 10 days by Cell-Titer luminescence assay. It is filed as functional. The following applies: KARPAS-422, 240 h.
Series [8] is described as follows: Growth inhibition of human KARPAS422 cells after 14 days by Cell-Titer luminescence assay. It is filed as functional. The following applies: KARPAS-422, 336 h.
Series [9] in a line: Growth inhibition of human KARPAS422 cells after 4 days by Cell-Titer luminescence assay. Type of series: functional. Particulars: KARPAS-422, 96 h.
Series [10] is described as follows: Growth inhibition of human KARPAS422 cells after 7 days by Cell-Titer luminescence assay. Particulars: KARPAS-422, 168 h. Type of series: functional.
The nature of series [11]: Growth inhibition of human KARPAS422 cells after 17 days by Cell-Titer luminescence assay. It is filed as functional. Particulars: KARPAS-422, 408 h.

SMILES strings stand for the structures.

By IC50 is commonly meant the concentration needed to halve the response being measured. Read a high IC50 as lower potency. What is called efflux ratio is a quotient of directional permeabilities that is used to spot active efflux. The term GI50 denotes the concentration at which growth is held to half of that of the control. Read a high GI50 as lower sensitivity of the cells.

Histone-lysine N-methyltransferase EZH2 (Homo sapiens, UniProt Q15910, Y641N), sequence (Q15910 whole entry Y641N): as the sequence (Q15910 whole entry) above, with Y641N counted along it

In turn, `CC1(C)CC(NC(=O)c2ccc(Oc3ccccc3C#N)cc2Cl)CC(C)(C)N1` gave an IC50 in [1] of 37 µM.
`Cc1cccc(Oc2ccc(C(=O)NC3CC(C)(C)NC(C)(C)C3)cc2Cl)c1C#N`: the values for the IC50 in series [1] and in [2] were 0.14 µM and 1.4 µM, respectively.
In [1], `CC1(C)CC(NC(=O)c2ccc(OCc3ccccc3)cc2)CC(C)(C)N1` displayed an IC50 of more than 80 µM.
Same read-out and setting: next, `CC1(C)CC(NC(=O)c2ccc(C(O)c3ccccc3)cc2)CC(C)(C)N1` (stereo unspecified): more than 80 µM; `CC1(C)CC(NC(=O)c2ccc(Oc3ccccc3C#N)c(Br)c2)CC(C)(C)N1`: 0.32 µM.
For the compound `CC1(C)CC(COc2ccc(Oc3cccc(-c4ccncn4)c3C#N)c(Cl)c2)CC(C)(C)N1`, the IC50 in [1] was 0.189 µM; in [2], 2 µM. Besides, the Papp B→A in [3] is 2.1 ×10⁻⁶ cm/s. The Papp A→B in series [4] came to 0.5 ×10⁻⁶ cm/s. The Activity in series [5] is more than 15 µM. Besides, the efflux ratio in [6] stood at 4.4.
Take `CC1(C)CC(NC(=O)c2ccc(Oc3ccccc3C#N)cc2)CC(C)(C)N1`: in series [1], the 50% inhibitory concentration (IC50) was 3.4 µM. That is a single-digit micromolar value.
The same measure, in the same setting: then `CC1(C)CC(NC(=O)c2ccc(Oc3ccccc3C(C)(C)C)cc2)CC(C)(C)N1`, with 7.9 µM; and `Cc1ccc(Oc2ccc(C(=O)NC3CC(C)(C)NC(C)(C)C3)cc2)cc1`, with more than 80 µM.
In the case of `CC1(C)CC(NC(=O)c2ccc(Oc3cccc(Cl)c3C#N)c(Cl)c2)CC(C)(C)N1`, the IC50 is 0.14 µM in [1] and 2.2 µM in series [2].
For `CC1(C)CC(NC(=O)c2ccc(Oc3ccccc3C#N)c(Cl)c2)C(F)(F)C(C)(C)N1` (stereo unspecified), the IC50 in series [1] and in [2] was more than 80 µM throughout.
As to `CC1(C)CC(NC(=O)c2ccc(COc3ccccc3)cc2)CC(C)(C)N1`, the IC50 in [1] is 48 µM.
For the compound `CC1(C)CC(NC(=O)c2ccc(Oc3ccccc3C#N)c(Cl)c2)CC(C)(C)N1CCO`, the IC50 was found to be 4.9 µM in series [1] and 62 µM in series [2].
`CC1(C)CC(NC(=O)c2ccc(C3(c4ccccc4)CC3)cc2)CC(C)(C)N1`: the IC50 in series [1] is more than 80 µM.
With `CC1(C)CC(NC(=O)c2ccc(Oc3cccc(-c4cn[nH]c4)c3C#N)c(Cl)c2)CC(C)(C)N1`, the IC50 in [1] turned out to be 0.23 µM; in [2], 4 µM.
`CC1(C)CC(NC(=O)c2ccc(Oc3ccccc3C#N)c(Cl)c2)CC(C)(C)N1` yielded an IC50 in [1] of 0.45 µM.
On to `CC1(C)CC(NC(=O)c2ccc(Oc3cccc(-c4ccnnc4)c3C#N)c(Cl)c2)CC(C)(C)O1`, for which the IC50 in series [1] amounted to 1.5 µM; in series [2], 66 µM. Further, the Papp B→A in [3] was found to be 24.8 ×10⁻⁶ cm/s. In addition, in series [4], the Papp A→B worked out at 21.9 ×10⁻⁶ cm/s. The efflux ratio in series [6] stood at 1.1.
The compound `CC1(C)CC(NC(=O)c2ccc(Oc3ccccc3C#N)c3ccccc23)CC(C)(C)N1` showed an IC50 in series [1] of 0.84 µM.
On the same count and under the same terms, next, `CC1(C)CC(NC(=O)c2ccc(Cc3ccccc3)cc2)CC(C)(C)N1`: more than 80 µM; `CC1(C)CC(NC(=O)c2ccc(Oc3ccccc3C#N)c(C3CC3)c2)CC(C)(C)N1`: 0.5 µM; `CC1(C)CC(NC(=O)c2ccc(C(=O)c3ccccc3)cc2)CC(C)(C)N1`: 57 µM.
For the compound `CC1CC(NC(=O)c2ccc(Oc3cccc(-c4ccnnc4)c3C#N)c(Cl)c2)CC(C)(C)N1` (stereo unspecified), the IC50 in series [1] was determined as 0.871 µM; in series [2], 10 µM.
For `CC1(C)CC(NC(=O)c2ccc(Oc3cccc(-c4ccncc4)c3C#N)c(Cl)c2)CC(C)(C)N1`, in that order: 0.081 µM and 0.56 µM.
`CC1(C)CC(NC(=O)c2ccc(Oc3cccc(-c4ccncn4)c3C#N)c(Cl)c2)CC(C)(C)N1`: the concentration for half-maximal inhibition (IC50) in series [1] is 0.024 µM; in [2] it was 0.13 µM.
For the compound `COc1cc(Oc2ccccc2C#N)ccc1C(=O)NC1CC(C)(C)NC(C)(C)C1`, the IC50 in series [1] was more than 80 µM.
The same measure, in the same setting: next, `CC1(C)CC(NC(=O)c2ccc(Oc3ccccc3C#N)c(C#N)c2)CC(C)(C)N1`: 0.93 µM; `CC1(C)CC(NC(=O)c2ccc(Oc3ccccc3C#N)c(F)c2)CC(C)(C)N1`: 1 µM.
As for `CC1(C)CC(NC(=O)c2ccc(Oc3cccc(-c4ccnnc4)c3C#N)c(Cl)c2)CC(C)(C)N1`, the GI50 in series [7] worked out at 23 µM; in series [8], 13.2 µM; in series [9] it was 70 µM; in [10], 24.8 µM; in [11], 9.1 µM. Further, in [3], the Papp B→A was found to be 3.29 ×10⁻⁶ cm/s. Moreover, the Papp A→B in [4] was determined as 0.19 ×10⁻⁶ cm/s. Further, the Activity in [5] is 7 µM.
Compound `Cc1ccccc1Oc1ccc(C(=O)NC2CC(C)(C)NC(C)(C)C2)cc1` came in with a 50% inhibitory concentration (IC50) in [1] of 48 µM.
Same read-out and setting: next, `Cc1cccc(Oc2ccc(C(=O)NC3CC(C)(C)NC(C)(C)C3)cc2)c1`: 61 µM.
In the case of `CC1(C)CC(NC(=O)c2ccc(Oc3ccccc3Cl)cc2)CC(C)(C)N1`, in series [1], the concentration for half-maximal inhibition (IC50) is 29 µM.
For `CC1(C)CC(OC(=O)c2ccc(Oc3cccc(-c4ccnnc4)c3C#N)c(Cl)c2)CC(C)(C)N1`, the IC50 in [1] was 0.172 µM; in series [2], 2.5 µM. Besides, the Papp B→A in [3] is 47.7 ×10⁻⁶ cm/s. Besides, the Papp A→B in series [4] is 20.4 ×10⁻⁶ cm/s. Besides, the efflux ratio in series [6] was determined as 2.3.
For `CC(c1ccccc1)c1ccc(C(=O)NC2CC(C)(C)NC(C)(C)C2)cc1` (stereo unspecified), the 50% inhibitory concentration (IC50) in series [1] was more than 80 µM.
Same read-out and setting: next, `COc1ccccc1Oc1ccc(C(=O)NC2CC(C)(C)NC(C)(C)C2)cc1`: 59 µM; `Cc1cc(C(=O)NC2CC(C)(C)NC(C)(C)C2)cc(C)c1Oc1ccccc1C#N`: 51 µM.
For the compound `CC1CC(NC(=O)c2ccc(Oc3cccc(-c4ccnnc4)c3C#N)c(Cl)c2)CC(C)N1` (stereo unspecified), the figures for the IC50 in series [1] and in series [2] were 2.1 µM and 10 µM, respectively.
Take `CC1(C)CC(NC(=O)c2ccc(Oc3ccccc3C#N)cc2F)CC(C)(C)N1`: in series [1], the IC50 was 15 µM. In other words, the double-digit micromolar range.
In the case of `CC1(C)CC(NC(=O)c2ccc(Nc3ccccc3)cc2)CC(C)(C)N1`, the IC50 in series [1] is more than 80 µM.
In turn, `CC1(C)CC(NC(=O)c2ccc(Oc3ccccc3)cc2)CC(C)(C)N1` came in with an IC50 in series [1] of 51 µM.
Compound `CN(c1ccccc1)c1ccc(C(=O)NC2CC(C)(C)NC(C)(C)C2)cc1` had an IC50 in series [1] of more than 80 µM.
Same read-out and setting: then `C#Cc1ccccc1Oc1ccc(C(=O)NC2CC(C)(C)NC(C)(C)C2)cc1`, with 19 µM.
Still for that read-out and setting: next, `Cc1cc(C(=O)NC2CC(C)(C)NC(C)(C)C2)ccc1Oc1ccccc1C#N`: 0.92 µM; `CC1(C)CC(NC(=O)c2ccc(S(=O)(=O)c3ccccc3)cc2)CC(C)(C)N1`: more than 80 µM.
On the same count and under the same terms, then `CC1(C)CC(NC(=O)c2ccc(Oc3ccccc3OCc3ccccc3)cc2)CC(C)(C)N1`, with 3.6 µM; and `CC1(C)CC(NC(=O)c2ccc([S+]([O-])c3ccccc3)cc2)CC(C)(C)N1` (stereo unspecified), with more than 80 µM.
In the case of `CC1(C)CC(NC(=O)c2cc(F)c(Oc3ccccc3C#N)c(Br)c2)CC(C)(C)N1`, in series [1], the IC50 came to 1 µM.
On the same count and under the same terms, next, `CC1(C)CC(NC(=O)c2ccc(Sc3ccccc3)cc2)CC(C)(C)N1`: 33 µM.

The record behind these values is ChEMBL document CHEMBL3259719, “Discovery and Optimization of Tetramethylpiperidinyl Benzamides as Inhibitors of EZH2” (ACS Med Chem Lett, 2014).
